Test results as given in paper PMC5571522, “Cryptotanshinone inhibition of mammalian target of rapamycin pathway is dependent on oestrogen receptor alpha in breast cancer” (Journal of Cellular and Molecular Medicine, 2017).

Target: T1, oestrogen receptor alpha (ERα) (Homo sapiens, UniProt P03372)
T1 construct: gene ESR1
Assay: HitHunter Estrogen Assay Kit competitive binding (enzyme fragment complementation); supported by ERE-luciferase inhibition in MCF-7 cells

T1 sequence (P03372 whole entry): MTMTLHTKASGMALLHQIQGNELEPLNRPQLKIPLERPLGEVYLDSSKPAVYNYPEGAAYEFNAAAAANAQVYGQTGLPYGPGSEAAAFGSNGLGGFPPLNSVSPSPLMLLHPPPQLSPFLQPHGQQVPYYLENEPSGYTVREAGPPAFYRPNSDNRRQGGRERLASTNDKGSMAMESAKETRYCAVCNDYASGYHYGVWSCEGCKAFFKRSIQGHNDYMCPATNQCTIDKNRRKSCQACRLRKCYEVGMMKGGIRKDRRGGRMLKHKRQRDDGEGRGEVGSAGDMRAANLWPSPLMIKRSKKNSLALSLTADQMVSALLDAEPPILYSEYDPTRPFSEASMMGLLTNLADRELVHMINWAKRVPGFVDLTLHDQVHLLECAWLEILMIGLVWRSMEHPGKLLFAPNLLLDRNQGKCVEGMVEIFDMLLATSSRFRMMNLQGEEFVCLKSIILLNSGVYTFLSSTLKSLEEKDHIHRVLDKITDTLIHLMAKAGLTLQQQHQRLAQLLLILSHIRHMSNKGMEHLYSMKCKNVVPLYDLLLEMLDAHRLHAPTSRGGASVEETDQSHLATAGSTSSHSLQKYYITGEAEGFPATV

**Q.** For `C[C@H]1COC2=C1C(=O)C(=O)c1c2ccc2c1CCCC2(C)C` [CPT, Cryptotanshinone], which EC50 is on record?
**A.** ~9.68 nM
